Where two headings read alike, the source gives them in different places.

From PMC8760323, “Single-chain tandem macrocyclic peptides as a scaffold for growth factor and cytokine mimetics” (Communications Biology, 2022) come the findings set out here.

Assay [1] has as its target T1, recombinant human Met ectodomain-Fc (Homo sapiens, UniProt P08581).
T1 construct: recombinant human Met ectodomain-Fc; purchased R&D Systems
The assay can be described thus: SPR analysis, human Met ectodomain. The format is binding. The procedure:
Binding constants of the STaMPtides and monomeric macrocyclic peptides to their corresponding receptor ectodomains were determined by SPR analysis using Biacore T200 (Cytiva). HBS-EP + buffer (Cytiva) containing 0.1% dimethyl sulfoxide (DMSO; Sigma-Aldrich, St. Louis, MO, USA) was used as the running buffer. As ligands, recombinant human Met ectodomain-Fc and human EPOR ectodomain-Fc were immobilized to around 1000 response units on CM5 sensor chips using a human antibody capture kit (Cytiva). STaMPtides and monomeric macrocyclic peptides were injected in five concentrations at a flow rate of 30 μL/min using a single-cycle kinetics method. Binding constants were quantified by analysis of the 1:1 binding model.

In the next assay the test system is Met. In words: Cell-based phospho-Met ELISA (HuCCT1 cells). Also on record: species or system human. To be noted: phospho-Met ELISA and Erk signaling reporter assay. On the procedure:
The phosphorylation level of Met was evaluated according to a previously reported method[6],[32], with slight modifications. In brief, HuCCT-1 cells at a density of 10,000 cells/well were seeded on 96-well cell culture plates and incubated overnight in 5% CO2 at 37 °C. The cells were stimulated by rhHGF, purified HGF mimetic STaMPtides, and monomeric aMD4dY for 10 min in a 5% CO2 incubator at 37 °C. Next, cells were fixed using 4% paraformaldehyde in phosphate-buffered saline (PBS) for 20 min. Cells were washed three times with PBS and blocked with 1% BSA and 0.02% Triton X-100 in PBS for 30 min at room temperature. Cells were incubated with 1:1000 diluted phospho-Met (Tyr1234/1235) (D26) XP Rabbit mAb (Cell Signaling Technology) supplemented with 1% BSA in PBS at 4 °C overnight. After washing three times with PBS, the cells were incubated with 1:1000 diluted […] HRP-linked IgG antibody (Cell Signaling Technology) supplemented with 1% BSA in PBS at room temperature for 3 h. Cells were washed four times with PBS and incubated with 100 μL TMB substrate for 30 min. The reaction was stopped with an equal volume of 0.2 N sulfuric acid, and absorbance was quantified at 450 nm by the Molecular Imager ChemiDoc XRS System (Bio-Rad).

Assay [2] relates to HuCCT1 cells. The assay can be described thus: Migration assay (Transwell). The class given is cell-based, human. To be noted: 24 h, 1.3 nM rhHGF or 32 nM aMD4dY-PA22; for Relative migration: standardized by mock. The procedure:
HuCCT1 cells at a density of 20,000 cells/well in RPMI 1640 medium supplemented with 0.5% FBS were added to 24-well Transwell inserts. In the lower layer, RPMI 1640 supplemented with 0.5% FBS with or without 1.3 nM rhHGF or 32 nM aMD4dY-PA22 was added. The cells were incubated for 24 h in 5% CO2 at 37 °C. The Transwell inserts were washed thrice with PBS, stained with 0.5% crystal violet (Nacalai Tesque)/methanol for 10 min, and washed with distilled water. Images of migrated cells were captured using BZ-X fluorescence microscopy (Keyence Corporation, Osaka, Japan), and cell migration levels were quantified by stained areas of the Transwell inserts.

Assay [3] concerns HuCCT1 cells. The assay can be described thus: Branching morphogenesis in collagen gel. The class given is cell-based, human. To be noted: 7 days; 0.44 nM rhHGF or […] aMD4dY-PA22. On the procedure:
HuCCT1 cells at a density of 20,000 cells/well were mixed with 400 μL of ice-cold collagen-containing culture medium (DMEM/Nutrient Mixture F-12, CellMatrix type IA [Nitta Gelatin Inc., Osaka, Japan], 2.2 g/L of sodium bicarbonate, 4.77 g/L of 4-(2-hydroxyethyl)-1-piperazineethanesulfonic acid [HEPES], and 0.005 N sodium hydroxide) and incubated in a 48-well cell culture plate in 5% CO2 at 37 °C for gelation. The cells encapsulated in the collagen gel were cultured with 500 μL of RPMI 1640 medium supplemented with 10% FBS with or without 0.44 nM HGF or 6.3 nM aMD4dY-PA22 in 5% CO2 at 37 °C. The culture medium was changed every 3 days. At day 7, the cells were observed by inverted microscopy.

T1 sequence (P08581 25-932 limits assumed): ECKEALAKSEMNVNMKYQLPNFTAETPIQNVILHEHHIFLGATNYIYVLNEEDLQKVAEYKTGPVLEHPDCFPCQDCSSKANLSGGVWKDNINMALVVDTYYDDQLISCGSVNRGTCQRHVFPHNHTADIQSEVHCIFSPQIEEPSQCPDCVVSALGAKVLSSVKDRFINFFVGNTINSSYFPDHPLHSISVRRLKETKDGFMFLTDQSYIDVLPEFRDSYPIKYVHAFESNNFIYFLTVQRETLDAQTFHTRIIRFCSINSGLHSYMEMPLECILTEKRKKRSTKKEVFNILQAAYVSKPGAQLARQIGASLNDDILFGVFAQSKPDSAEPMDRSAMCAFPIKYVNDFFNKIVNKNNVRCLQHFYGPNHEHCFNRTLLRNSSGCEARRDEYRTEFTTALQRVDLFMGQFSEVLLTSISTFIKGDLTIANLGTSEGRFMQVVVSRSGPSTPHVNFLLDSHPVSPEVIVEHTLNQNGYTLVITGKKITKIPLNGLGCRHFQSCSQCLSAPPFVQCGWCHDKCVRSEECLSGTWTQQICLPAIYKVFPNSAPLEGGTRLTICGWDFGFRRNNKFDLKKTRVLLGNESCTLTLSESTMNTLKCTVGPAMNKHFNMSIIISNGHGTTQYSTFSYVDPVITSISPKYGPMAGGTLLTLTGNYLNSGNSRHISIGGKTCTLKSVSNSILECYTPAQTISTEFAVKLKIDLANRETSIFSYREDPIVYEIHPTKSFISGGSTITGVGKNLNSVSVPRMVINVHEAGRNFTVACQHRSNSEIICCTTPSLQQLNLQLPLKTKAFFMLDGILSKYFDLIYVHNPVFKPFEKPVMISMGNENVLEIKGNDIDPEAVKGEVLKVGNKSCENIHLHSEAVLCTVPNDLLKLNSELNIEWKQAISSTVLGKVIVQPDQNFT

Broadly, the Kd is the equilibrium constant for the complex coming apart. In the case of “AET - CRQFNRRTHEVWNLDCG - AAPAAPA PAAPAAPA PAAPAA PG - CRQFNRRTHEVWNLDC (bicyclic or more) [aMD4dY-PA22, HGF mimetic STaMPtide, two aMD4dY macrocycles with a 22-amino-acid PA linker, secreted by C. glutamicum]”, the Kd turned out to be 1 nM in assay [1] (Biacore T200, single-cycle kinetics, 1:1 binding model, N = 3, read-out: dissociation constant (KD)); 1.3 nM in assay [1] (Table S1, N 1, read-out: KD); 0.9 nM in assay [1] (Table S1, N 2, read-out: KD); 0.85 nM in assay [1] (Table S1, N 3, read-out: KD). The kd came out at 0.00046 M⁻¹ s⁻¹ in assay [1] (Table S1, Average of N 1-3); 0.0006 M⁻¹ s⁻¹ in assay [1] (Table S1, N 1); 0.00038 M⁻¹ s⁻¹ in assay [1] (Table S1, N 2); 0.00039 M⁻¹ s⁻¹ in assay [1] (Table S1, N 3). Further, the “Met phosphorylation and Erk-SRE signaling activation” value in the assay with Met was “at a comparable level with rhHGF”. In addition, the migration entry with HuCCT1 cells [2] is listed as “promoted migration of HuCCT1 cells”. The Stained area with HuCCT1 cells [2] (n1) turned out to be 1905662 μm^2; in the assay on HuCCT1 cells [2] (n2), 1256153 μm^2. In addition, the Stained/Total turned out to be 0.07439 with HuCCT1 cells [2] (n1) and 0.04693 in the assay with HuCCT1 cells [2] (n2). The figures for the Relative migration in the assay on HuCCT1 cells [2] (n1) and with HuCCT1 cells [2] (n2) were 4.415 and 2.785, respectively. For the same substance, the branching morphology result with HuCCT1 cells [3] is “showed branched tubular structures”.
For “rhHGF: recombinant human HGF (R&D Systems)”, the migration result with HuCCT1 cells [2] is listed as “promoted migration of HuCCT1 cells”. In the assay on HuCCT1 cells [2] (n1), this substance came in with a Stained area of 1050763 μm^2, a Stained/Total of 0.03941 and a Relative migration of 2.3393. In the assay on HuCCT1 cells [2] (n2), this substance registered a Stained area of 1394072 μm^2, a Stained/Total of 0.04835 and a Relative migration of 2.87. The branching morphology result with HuCCT1 cells [3] was “showed branched tubular structures”.
